Here are results for 20 molecules from patent US20090069370A1, “AZACYCLYLISOQUINOLINONE AND ISOINDOLINONE DERIVATIVES AS HISTAMINE-3 ANTAGONISTS” (Wyeth, priority 2007, published 2009).

Each structure is given as a SMILES string. Where a name gives a salt, the structure may show the parent alone.

Tested on in one data set: not given
Assay: not given
Conditions: not given
As to `O=C(O)c1ccc(Oc2ccc3c(c2)CCN([C@@H]2CCN(C4CCCC4)C2)C3=O)cc1` [Example 36, (R)-4-(2-(1-cyclopentylpyrrolidin-3-yl)-1-oxo-1,2,3,4-tetrahydro-isoquinolin-6-yloxy)benzoic acid], the melting point – broadly, the temperature, or range, at which the solid turns liquid – lay within 170 to 173 °C.

In turn, `COC(=O)c1ccc(COc2ccc3c(c2)CCN(C2CCN(C4CCC4)CC2)C3=O)cc1` [Example 13, methyl 4-({[2-(1-Cyclobutylpiperidin-4-yl)-1-oxo-1,2,3,4-tetrahydroisoquinolin-6-yl]oxy}methyl)benzoate] gave a melting point of 165 to 166 °C.

`O=C(O)c1ccc(COc2ccc3c(c2)CCN(C2CCN(C4CCC4)CC2)C3=O)cc1` [Example 14, 4-({[2-(1-cyclobutylpiperidin-4-yl)-1-oxo-1,2,3,4-tetrahydroiso-quinolin-6-yl]oxy}methyl)benzoic acid] came in with a melting point of 269 to 270 °C.

Molecule `O=C(O)c1ccc(Oc2ccc3c(c2)CCN(C2CCN(C4CCC4)CC2)C3=O)cc1` [Example 2, 4-{[2-(1-cyclobutylpiperidin-4-yl)-1-oxo-1,2,3,4-tetrahydroiso-quinolin-6-yl]oxy}benzoic acid] displayed a melting point of 255 to 256 °C.

For another data set, the target named is T1, Human Histamine H3 Receptor (Homo sapiens, UniProt Q9Y5N1).
T1 construct: expressed in transfected cells; host or cells: HEK293T cells, stably transfected; membrane preparation
T1 sequence (Q9Y5N1 whole entry): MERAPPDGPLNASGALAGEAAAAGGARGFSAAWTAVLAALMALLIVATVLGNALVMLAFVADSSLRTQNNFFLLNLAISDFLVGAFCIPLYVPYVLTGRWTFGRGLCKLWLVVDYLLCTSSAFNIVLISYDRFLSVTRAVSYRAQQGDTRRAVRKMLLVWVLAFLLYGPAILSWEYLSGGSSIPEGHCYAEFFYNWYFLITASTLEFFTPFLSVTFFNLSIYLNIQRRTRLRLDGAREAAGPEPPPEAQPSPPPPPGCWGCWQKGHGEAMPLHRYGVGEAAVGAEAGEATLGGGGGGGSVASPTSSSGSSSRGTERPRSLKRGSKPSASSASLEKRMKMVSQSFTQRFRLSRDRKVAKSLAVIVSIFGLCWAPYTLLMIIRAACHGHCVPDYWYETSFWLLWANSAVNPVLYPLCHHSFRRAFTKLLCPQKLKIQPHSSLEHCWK
Briefly: Methyl histamine binding in human histamine H3 receptor cell line. As to conditions: membranes of stably transfected HEK293T cells; radioligand 1 nM; Ki from IC50 by Cheng-Prusoff. In outline: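 Radioligand (1 nM final) displacement on membranes (10 μg) from stably transfected HEK293T cells, 1 h at 30 °C in 50 mM Tris pH 7.5, compounds ~100 μM–100 pM, nonspecific with 10 uM clobenpropit, filtration and scintillation counting. IC50 from four-parameter fit; Ki via Cheng-Prusoff.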
Turning to `O=C(O)c1ccc(Oc2ccc3c(c2)CCN([C@@H]2CCN(C4CCCC4)C2)C3=O)cc1` [Example 36, (R)-4-(2-(1-cyclopentylpyrrolidin-3-yl)-1-oxo-1,2,3,4-tetrahydro-isoquinolin-6-yloxy)benzoic acid], the Ki (usually a measure of affinity in units of concentration, obtained from inhibition or displacement) was 50.1 to 100 nM.

Turning to `COC(=O)c1ccc(COc2ccc3c(c2)CCN(C2CCN(C4CCC4)CC2)C3=O)cc1` [Example 13, methyl 4-({[2-(1-Cyclobutylpiperidin-4-yl)-1-oxo-1,2,3,4-tetrahydroisoquinolin-6-yl]oxy}methyl)benzoate], the Ki lay within 10.1 to 25 nM.

Turning to `O=C(O)c1ccc(COc2ccc3c(c2)CCN(C2CCN(C4CCC4)CC2)C3=O)cc1` [Example 14, 4-({[2-(1-cyclobutylpiperidin-4-yl)-1-oxo-1,2,3,4-tetrahydroiso-quinolin-6-yl]oxy}methyl)benzoic acid], the Ki lay in the range of 10.1 to 25 nM.

For the molecule `O=C(O)c1ccc(Oc2ccc3c(c2)CCN(C2CCN(C4CCC4)CC2)C3=O)cc1` [Example 2, 4-{[2-(1-cyclobutylpiperidin-4-yl)-1-oxo-1,2,3,4-tetrahydroiso-quinolin-6-yl]oxy}benzoic acid], the Ki fell in the range of 50.1 to 100 nM.

In the case of `C[C@@H]1CCCN1C(=O)c1ccc(-c2ccc3c(c2)CCN([C@@H]2CCN(C4CCC4)C2)C3=O)c(F)c1` [Example 76, 2-[(3R)-1-cyclobutylpyrrolidin-3-yl]-6-(2-fluoro-4-{[(2R)-2-methylpyrrolidin-1-yl]carbonyl}phenyl)-3,4-dihydroisoquinolin-1(2H)-one], the Ki was at most 10 nM.

Molecule `O=C1NCCc2cc(-c3ccc4c(c3)CCN([C@@H]3CCN(C5CCC5)C3)C4=O)ccc21` [Example 89, (R)-2-(1-cyclobutylpyrrolidin-3-yl)-3,3′,4,4′-tetrahydro-6,6′-biisoquinoline-1,1′(2H,2′H)-dione hydrochloride] had a Ki of at most 10 nM.

On to `O=C(c1ccc(-c2ccc3c(c2)CCN([C@@H]2CCCN(C4CCC4)C2)C3=O)cc1)N1CCCC1` [Example 70, 2-[(3R)-1-cyclobutylpiperidin-3-yl]-6-[4-(pyrrolidin-1-ylcarbonyl)phenyl]-3,4-dihydroisoquinolin-1(2H)-one], for which the Ki was in the range of 10.1 to 25 nM.

On to `O=C(c1ccc(-c2ccc3c(c2)CCN(C2CCN(C4CCCC4)CC2)C3=O)cc1)N1CCCC1` [Example 66, 2-(1-cyclopentylpiperidin-4-yl)-6-[4-(pyrrolidin-1-ylcarbonyl)phenyl]-3,4-dihydroisoquinolin-1(2H)-one], for which the inhibitory constant (Ki) is at most 10 nM.

On to `O=C(c1ccc(-c2ccc3c(c2)CCN([C@@H]2CCN(Cc4cccs4)C2)C3=O)cc1)N1CCCC1` [Example 62, 6-[4-(pyrrolidin-1-ylcarbonyl)phenyl]-2-[(3R)-1-(thiophen-2-ylmethyl)pyrrolidin-3-yl]-3,4-dihydroisoquinolin-1(2H)-one], for which the Ki was 25.1 to 50 nM.

In turn, `O=C(c1ccc(-c2ccc3c(c2)CCN([C@@H]2CCN(C4CCCC4)C2)C3=O)cc1)N1CCCC1` [Example 43, 2-[(3R)-1-cyclopentylpyrrolidin-3-yl]-6-[4-(pyrrolidin-1-ylcarbonyl)phenyl]-3,4-dihydroisoquinolin-1(2H)-one] registered a Ki of at most 10 nM.

As for `O=C(O)c1ccc(Oc2ccc3c(c2)CCN([C@@H]2CCN(C4CCC4)C2)C3=O)cc1` [Example 32, (R)-4-(2-(1-cyclobutylpyrrolidin-3-yl)-1-oxo-1,2,3,4-tetrahydroiso-quinolin-6-yloxy)benzoic acid], the Ki was above 100 nM.

For `O=C(c1ccc(-c2ccc3c(c2)CCN([C@@H]2CCN(CC4CC4)C2)C3=O)cc1)N1CCCC1` [Example 58, 2-[(3R)-1-(cyclopropylmethyl)pyrrolidin-3-yl]-6-[4-(pyrrolidin-1-ylcarbonyl)phenyl]-3,4-dihydroisoquinolin-1(2H)-one], the Ki is at most 10 nM.

As for `O=C(NC1CC1)c1ccc(-c2ccc3c(c2)CCN([C@@H]2CCN(C4CCC4)C2)C3=O)c(F)c1` [Example 81, 4-{2-[(3R)-1-cyclobutylpyrrolidin-3-yl]-1-oxo-1,2,3,4-tetrahydroisoquinolin-6-yl}-N-cyclopropyl-3-fluorobenzamide], the Ki was at most 10 nM.

In turn, `CC(C)N1CCC[C@@H](N2CCc3cc(-c4ccc(C(=O)N5CCCC5)cc4)ccc3C2=O)C1` [Example 72, 2-[(3R)-1-isopropylpiperidin-3-yl]-6-[4-(pyrrolidin-1-ylcarbonyl)phenyl]-3,4-dihydroisoquinolin-1(2H)-one] registered a Ki above 100 nM.

As for `O=C(c1ccc(-c2ccc3c(c2)CCN([C@@H]2CCN(C4CCC4)C2)C3=O)cc1F)N1CCCC1` [Example 48, 2-[(3R)-1-cyclobutylpyrrolidin-3-yl]-6-[3-fluoro-4-(pyrrolidin-1-ylcarbonyl)phenyl]-3,4-dihydroisoquinolin-1(2H)-one], the Ki was at most 10 nM.

Molecule `CCNC(=O)c1ccc(-c2ccc3c(c2)CCN([C@@H]2CCN(C(C)C)C2)C3=O)c(F)c1` [Example 86, N-ethyl-3-fluoro-4-{2-[(3R)-1-isopropylpyrrolidin-3-yl]-1-oxo-1,2,3,4-tetrahydroisoquinolin-6-yl}benzamide] showed a Ki of at most 10 nM.

As for `CN(C)C(=O)c1ccc(Oc2ccc3c(c2)CCN(C2CCN(C4CCC4)CC2)C3=O)cc1` [Example 10, 4-{[2-(1-Cyclobutylpiperidin-4-yl)-1-oxo-1,2,3,4-tetrahydroisoquinolin-6-yl]oxy}-N,N-dimethylbenzamide], the Ki lay in the range of 10.1 to 25 nM.

The molecule `CNC(=O)c1ccc(-c2ccc3c(c2)CN([C@@H]2CCN(C4CCC4)C2)C3=O)cc1` [Example 91, (R)-4-(2-(1-cyclobutylpyrrolidin-3-yl)-1-oxoisoindolin-5-yl)-N-methylbenzamide hydrochloride] registered a Ki of 10.1 to 25 nM.

As for `CN1CCC(N2Cc3cc(-c4ccc(C#N)cc4)ccc3C2=O)CC1` [Example 23, hydrochloride], the Ki is above 100 nM.

In turn, `N#Cc1ccc(-c2ccc3c(c2)CN(C2CCN(C4CCCCC4)CC2)C3=O)cc1` [Example 30, 4-[2-(1-Cyclohexylpiperidin-4-yl)-1-oxo-2,3-dihydro-1H-isoindol-5-yl]benzonitrile] came in with a Ki of 25.1 to 50 nM.
